Data as given in patent US7705148B2, “Processes for the preparation of 4-[[4-[[4-(2-cyanoethenyl)-2,6-dimethylphenyl]amino]-2-pyrimidinyl]amino]benzonitrile” (priority 2008, dated 2010).

Tests used:
[1] = Cytotoxicity in mock-infected MT-4 cells (MTT); assay type: cell-based; settings: human, OD 540 nm, read-out: CC50 (50% cytotoxic concentration)
Method: (§1) A rapid, sensitive and automated assay procedure was used for the in vitro evaluation of anti-HIV agents. An […] T4-cell line, MT-4, which was previously shown (Koyanagi et al., Int. J. Cancer, 36, 445-451, 1985) to be highly susceptible to and permissive for HIV infection, served as the target cell line. Inhibition of the HIV-induced cytopathic effect was used as the end point. The viability of both HIV- and mock-infected cells was assessed spectrophotometrically via the in situ reduction of 3-(4,5-dimethylthiazol-2-yl)-2,5-diphenyltetrazolium bromide (MTT). The 50% cytotoxic concentration (CC50 in M) was defined as the concentration of compound that reduced the absorbance of the mock-infected control sample by 50%. The percent protection achieved by the compound in HIV-infected cells was calculated by the following formula:
(§2) [formula] whereby (ODT)HIV is the optical density measured with a given concentration of the test compound in HIV-infected cells; (ODC)HIV is the optical density measured for the control untreated HIV-infected cells; (ODC)MOCK is the optical density measured for the control untreated mock-infected cells; all optical density values were determined at 540 nm. The dose achieving 50% protection according to the above formula was defined as the 50% inhibitory concentration (IC50 in M). The ratio of CC50 to IC50 was defined as the selectivity index (SI).

[2] = system: resistant mutants of HIV-1 (single and double mutants); assay: Replication inhibiting activity towards resistant mutants of HIV-1; assay type: cell-based; settings: single and double mutants of HIV-1
Method: Compound X was also tested for its replication inhibiting activity towards resistant mutants of HIV-1 (single and double mutants).

HIV = assay: Determination of anti-HIV activity: inhibition of HIV-induced cytopathic effect in MT-4 cells (MTT); assay type: cell-based, Human Immunodeficiency Virus
Method: as §1, §2

## Cc1cc(/C=C/C#N)cc(C)c1Nc1ccnc(Nc2ccc(C#N)cc2)n1 [Compound X, 4-[[4-[[4-(2-cyanoethenyl)-2,6-dimethylphenyl]amino]-2-pyrimidinyl]amino]benzonitrile (E)]
[1]
  CC50: 10 µM
[2]
  replication inhibiting activity against resistant strains: high activity
HIV
  SI (selectivity index, ratio of CC50 to IC50): 25,119
